The data set can be described thus: in vitro. Conditions: human, hela cells, % viability.

Structures are written as SMILES.

As usually defined, the viability is a read-out of living cells in per cent, often relative to untreated cells. On to `N/C(=N\OCC(=O)Nc1cccc([N+](=O)[O-])c1)c1nonc1N` [CBK262044], for which the viability at 28.5 h, 10 µM amounted to 90%. Take `COC(=O)[C@H]1CN(C(=O)CN2CCCC2=O)C[C@@H]1c1ccc(F)cc1` [CBK283507]: the viability at 28.5 h, 10 µM was found to be 93.3%. For the compound `Cc1cc(O)nc2sc(C(=O)c3ccccc3)c(N)c12` [CBK115334], the viability at 28.5 h, 10 µM is 87.9%. The same measure for `Cc1cc(C)nc(SCC(=O)N/N=C2/C(=O)Nc3ccccc32)n1` [CBK262883]: 108%; for `O=C(O)c1ccc(S(=O)(=O)NCc2ccc3c(c2)OCO3)cc1` [CBK262360]: 97%; for `N=C1NC(=O)/C(=C\c2ccc(-c3ccc(Br)cc3)o2)S1` [CBK261409]: 69.9%. Take `COc1cc(-c2cnc(N)c(N3CCN(CCN(C)C)CC3)n2)cc(OC)c1OC` [CBK063488]: the viability at 28.5 h, 10 µM turned out to be 94.4%. In the case of `COc1cc(OC)cc(C(=O)N2CCC3(CC2)CC(=O)c2cc(C)c(C)cc2O3)c1` [CBK164201] it was 83.3%; in that of `COc1cc(C)ccc1S(=O)(=O)n1cnc2cc(C)c(C)cc21` [CBK287580], 61.3%; in that of `COc1ccccc1NC(=O)CNC(=O)c1ccc([N+](=O)[O-])cc1` [CBK268657], 91.9%. The same measure for `Cc1cc(CN2CCOCC2)oc1C(=O)O` [CBK263239C]: 104%. As to `O=C(c1ccco1)N1Cc2nc[nH]c2C[C@H]1c1nc(-c2ccc3ccccc3c2)no1` [CBK288965], the viability at 28.5 h, 10 µM came out at 108%. The same measure for `O=C(COc1ccc(I)cc1)N/N=C/c1cccc([N+](=O)[O-])c1` [CBK262211]: 95.2%; for `CCS(=O)(=O)c1nc2ccccc2n1CC(=O)Nc1ccccc1C(=O)OC` [CBK267877]: 90%. The same measure for `Cc1ccccc1Cn1c(=O)sc2ccccc21` [CBK025408]: 94.9%; for `O=C(c1cccnc1)N1CCc2ccccc21` [CBK200279]: 121%. The same measure for `CC(=O)NC(CC(=O)N1CCCC(n2cccn2)C1)c1cccs1` (stereo not drawn) [CBK305405]: 94.6%; for `Cc1ccccc1NC(=O)COc1ccc(S(=O)(=O)N2CCCC2)cc1Cl` [CBK268938]: 95.2%. Consider `NC(=S)N/N=C/c1c[nH]nc1-c1ccccc1` [CBK009705], for which the viability at 28.5 h, 10 µM is 96.5%. The same measure for `COC(=O)c1ccc(N2C(=O)CC(N3CCC(n4c(=O)[nH]c5ccccc54)CC3)C2=O)cc1` (stereo not drawn) [CBK268714]: 94.6%; for `CCc1nnc(NS(=O)(=O)c2c(C)nn(C)c2Cl)s1` [CBK062180]: 112%. In the case of `CC(C)c1ccc(N2C(=O)N[C@@H]3CCN(C(=O)COc4ccccc4)[C@@H]3C2=O)cc1` [CBK289288] it was 98.2%; in that of `COc1ccc(C(C)C)cc1-c1cnc2[nH]c(=O)n([C@H](CO)C(C)C)c2n1` [CBK064962], 96.2%. As to `Cc1ccc(SCCC(=O)NC(CC(=O)O)C(=O)O)cc1` (stereo not drawn) [CBK295174], the viability at 28.5 h, 10 µM turned out to be 103%.

As to `O=C(Cc1cc(F)cc(F)c1F)N1CCC(Sc2ccc(-c3ccccc3)cc2)CC1` [CBK131952], the viability at 28.5 h, 10 µM was 94.5%. Turning to `O=C(O)CSc1ncnc2ccccc12` [CBK262069], the viability at 28.5 h, 10 µM came to 94.4%. The same measure for `O=c1c2ccccc2nc(/C=C/c2cccnc2)n1Cc1ccccc1` [CBK265876]: 106%; for `COCCOC1CN(Cc2cn(-c3ccc(Br)cc3)nc2C(C)C)C1` [CBK304852]: 87.7%; for `O=C(NC(N1CCCCC1)C(Cl)(Cl)Cl)c1ccc(Cl)cc1Cl` (stereo not drawn) [CBK261024]: 91.6%.

As for `CCN(CC)C(=O)c1ccc(NS(=O)(=O)Cc2ccccc2[N+](=O)[O-])cc1` [CBK034396], the viability at 28.5 h, 10 µM came to 97.1%.

In the case of `CC1CCN(C(=O)CN2C(=O)N3CCN=C3c3ccccc32)CC1` [CBK283946], the viability at 28.5 h, 10 µM was found to be 93.6%. In the case of `Cc1cccc(-c2n[nH]c(=S)n2CC(=O)NCc2cn(-c3ccccc3)nc2-c2ccccc2)c1` [CBK297941] it was 88.1%; in that of `CC(C)(C)c1ccc(C(=O)N2CCN(C(=O)CN3CCOCC3)C2)cc1` [CBK051554C], 112%. In the case of `CN1CCCCC/C1=N/C(=S)CN1CCCC1=S` [CBK009052] it was 96.3%; in that of `CC(=O)Nc1ccc(S(=O)(=O)NCCC#N)cc1Cl` [CBK044272], 95.2%; in that of `COc1ccc(C2(C(=O)Nc3ccc(-c4ccccc4OC)cc3)CCOCC2)cc1` [CBK285710], 89.5%. The same measure for `CC(=O)N1CCC(O)(C2(C)OC(NC3C4CC5CC(C4)CC3C5)=NC2=O)CC1` (stereo not drawn) [CBK138181]: 91.8%. Turning to `O[C@@H]1C[C@@H](c2nc(-c3ccccn3)no2)N(Cc2ccccc2)C1` [CBK288900], the viability at 28.5 h, 10 µM amounted to 81.3%. The same measure for `Cc1ccn(-c2ccc(N3CCC(OC4CCOCC4)CC3)nn2)n1` [CBK306296]: 87%; for `O=C(C(Cc1ccccc1)N1C(=O)C2CCCCC2C1=O)N1CCN(Cc2ccc3c(c2)OCO3)CC1` (stereo not drawn) [CBK264648]: 102%; for `Cc1cccc(C2(CNC(=O)C3COCCO3)CCCCC2)c1` (stereo not drawn) [CBK305087]: 109%. Regarding `COc1nccnc1-c1cnn(Cc2ccccc2)c1` [CBK107090], the viability at 28.5 h, 10 µM came to 101%. The same measure for `O=c1c(Cl)c(O)c2ccccc2n1Cc1ccccc1` [CBK291164]: 91.2%; for `COc1ccc(C(=O)NNC(=O)c2cccc(O)c2)cc1` [CBK262594]: 118%. Consider `Cc1nc(NS(=O)(=O)c2c(C)noc2C)sc1C(=O)Nc1ccc(F)cc1` [CBK050551], for which the viability at 28.5 h, 10 µM is 113%.

For the compound `O=c1[nH]c2ncc(-c3ccco3)nc2n1CCc1cccnc1` [CBK064494], the viability at 28.5 h, 10 µM was found to be 94.7%.

`Cc1ccc(-c2csc(NC(=O)c3ccc(F)cc3)n2)cc1` [CBK095107]: the viability at 28.5 h, 10 µM was found to be 85.2%. Consider `C[C@]12CN(Cc3cccs3)C[C@H]1C(=O)Nc1ccccc1C(=O)N2` [CBK284705], for which the viability at 28.5 h, 10 µM came out at 98.2%. In the case of `CC(=O)c1c(C)nn(C(C)CC(=O)O)c1C` (stereo not drawn) [CBK269101] it was 103%; in that of `COc1ccc(/N=C2\S[C@H]3[C@H]([C@@H](O)[C@H](O)C[C@@H]3C(N)=O)N2Cc2cccs2)cc1` [CBK288943], 88.7%. The same measure for `CC(=O)Nc1ccc(C(=O)N/C(=C/c2ccccc2)C(=O)O)cc1` [CBK265353]: 87.6%; for `COc1ccc2cc([C@@H](O)C[C@@H](C)O)c(Cl)nc2c1` [CBK022146]: 104%. Regarding `CCCc1[nH]nc(O)c1-c1cccc2ccccc12` [CBK075125], the viability at 28.5 h, 10 µM was found to be 94%. In the case of `COCCNC(=O)c1ccc(-c2ccccc2C)nc1NC(C)=O` [CBK106325] it was 109%. The same measure for `O=C(CSc1nnc(-c2cccs2)n1-c1ccccc1)Nc1ccnc2ccccc12` [CBK267487]: 94.4%; for `CCc1nc2ccc(C(=O)Nc3ccc(C(N)=O)cc3)cn2c1N(CC)Cc1cccc(Br)c1` [CBK146960]: 92.9%; for `O=C(Cn1cc(/C=C/c2[nH]c(=O)[nH]c(=O)c2[N+](=O)[O-])c2ccccc21)Nc1ccc2c(c1)OCO2` [CBK267036]: 80.8%. In the case of `CN/C(=N\C1CCCCC1)N1CCOCC1` [CBK023800G] it was 92.2%; in that of `O=C(Nc1ccc(S(=O)(=O)NCCc2ccccc2)cc1)c1ccncc1` [CBK268172], 90.3%.

As to `CC1=C[C@@H](CO)[C@H](C(C)C)C[C@H]1Cc1nnc(Cc2c[nH]c3ccccc23)o1` [CBK289223], the viability at 28.5 h, 10 µM was determined as 89.1%. In the case of `C[C@@H]1C[C@H](Nc2ccccc2)c2ccccc2N1C(=O)CCC(=O)O` [CBK286820] it was 95.8%; in that of `Cc1nnc(-c2cccc(S(=O)(=O)n3ccn(-c4cccc(C(F)(F)F)c4)c3=O)c2)o1` [CBK106592], 91.9%; in that of `CN(C)CCNC(=O)c1cccc(-c2cnc3[nH]c(=O)n(Cc4ccc(S(C)(=O)=O)cc4)c3n2)c1` [CBK065069], 109%.

`Cc1ccc2oc(-c3cc(NC(=O)Cn4cnc5c(=O)n(C)c(=O)n(C)c54)ccc3O)nc2c1` [CBK267112]: the viability at 28.5 h, 10 µM came to 95.1%. The same measure for `O=C(CN1CCCCC1)Nc1ccc(S(=O)(=O)N2CCOCC2)cc1` [CBK265577]: 90.2%. As to `CCOc1ccc(C2(C)C(=O)N(CN3CCOCC3)C(=O)N2CN2CCOCC2)cc1` (stereo not drawn) [CBK261359], the viability at 28.5 h, 10 µM came out at 96%. The same measure for `CCCCn1nnnc1NCc1cccc(OC)c1OC` [CBK288091]: 104%.

With `O=C(COc1ccccc1)Nc1ccc2n(c1=O)C[C@H]1C[C@@H]2CN(C(=O)c2ccccc2)C1` [CBK289079], the viability at 28.5 h, 10 µM worked out at 76.6%. In the case of `O=C(NCCSCc1ccco1)Nc1cccc(Cl)c1` [CBK268277], the viability at 28.5 h, 10 µM is 99.2%. The same measure for `CC1CCc2c(sc3ncnc(NCCc4nc5ccccc5[nH]4)c23)C1` (stereo not drawn) [CBK268809]: 91.6%. `COc1cccc(-c2cnc3[nH]c(=O)n(CCCO)c3n2)c1` [CBK065036]: the viability at 28.5 h, 10 µM is 93.3%.

As for `O=C(O)/C=C/c1ccccc1OCC(=O)NC1CCCCC1` [CBK286900], the viability at 28.5 h, 10 µM came to 99.8%. The same measure for `O=C(O)C1C2C=CC(C2)C1C(=O)N1CCN(Cc2ccccc2Cl)CC1` (stereo not drawn) [CBK270334]: 93%. In the case of `Cc1n[nH]cc1CN(CCCn1ccnc1)Cc1cccc(F)c1` [CBK282650] it was 90.1%; in that of `CNC(=O)NC(=O)C(C)NCC1(c2cc(C)ccc2OC)CCOCC1` (stereo not drawn) [CBK306318], 79.1%. In the case of `CS(=O)(=O)c1ccc(Cn2ccnc(N3CCN(C(=O)Cc4cccs4)CC3)c2=O)cc1` [CBK153773] it was 89.9%; in that of `Cn1cc(NC(=O)CCn2c(C(F)(F)F)cc3cccnc32)cn1` [CBK284866], 92.5%; in that of `CC(C)(C)CN1CCC(Oc2nccnc2OCc2ccc(Br)cc2F)CC1` [CBK161946], 116%.

The values are drawn from PMC12040169 (PLOS Biology, 2025).
